# Reference: patent US12023408B2, “Amorphous efinaconazole solid dispersion” (DAEBONG LS CO., LTD., priority 2019, dated 2024)
# Test: Test for the content of related substances (stability in solution, HPLC)
# Assay type: physicochemical
# Conditions: dissolved in a solution
# Experimental: Experimental Example 1—Test for the Content of Related Substances […] Thereafter, the contents of related substances were measured by high-performance liquid chromatography (HPLC). The same procedure was repeated except that crystalline efinaconazole was used instead of the solid dispersion.
smiles,measurement,setting,value
"C=C1CCN([C@H](C)[C@](O)(Cn2cncn2)c2ccc(F)cc2F)CC1 [Efinaconazole, (2R,3R)-2-(2,4-difluorophenyl)-3-(4-methylenepiperidin-1-yl)-1-(1H-1,2,4-triazol-1-yl)butan-2-ol]",content of related substances,"oven at 65° C., 0 (initial)",0
same,content of related substances,"oven at 65° C., 1 week",0.45%
same,content of related substances,"oven at 65° C., 2 weeks",0.54%
same,content of related substances,"oven at 65° C., 4 weeks",1.53%
same,content of related substances,"room temperature, 0 (initial)",0
same,content of related substances,"room temperature, 1 week",0.27%
same,content of related substances,"room temperature, 2 weeks",0.39%
same,content of related substances,"room temperature, 4 weeks",0.40%
